Source: patent US9776976B2, “Triazolone compounds and uses thereof” (Inception 2, Inc., priority 2013, dated 2017)

Tests used:
Assay type in all cases: cell-based
Human PPARα = target: T1, Human PPARα (Homo sapiens, UniProt Q07869); experiment: Human PPARα Reporter Assay (luciferase, Indigo Biosciences); details: antagonist mode, reporter cells, overnight incubation
T1 construct: host or cells: proprietary non-human mammalian cells
T1 sequence (Q07869 1-468): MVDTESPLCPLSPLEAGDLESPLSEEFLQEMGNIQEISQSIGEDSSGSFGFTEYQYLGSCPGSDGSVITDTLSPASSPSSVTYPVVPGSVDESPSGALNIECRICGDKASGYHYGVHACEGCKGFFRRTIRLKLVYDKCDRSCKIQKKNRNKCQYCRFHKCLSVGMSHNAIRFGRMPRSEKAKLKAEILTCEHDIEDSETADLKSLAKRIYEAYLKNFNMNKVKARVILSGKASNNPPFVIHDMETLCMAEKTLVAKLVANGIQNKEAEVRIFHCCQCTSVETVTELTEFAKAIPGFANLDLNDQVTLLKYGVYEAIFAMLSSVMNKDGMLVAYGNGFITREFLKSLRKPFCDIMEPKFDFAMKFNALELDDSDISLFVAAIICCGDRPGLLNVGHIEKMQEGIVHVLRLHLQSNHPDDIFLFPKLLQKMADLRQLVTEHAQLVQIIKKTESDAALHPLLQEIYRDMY
Protocol: Human PPARα Reporter Assay The screening of test compounds for agonist or antagonist activities against human PPARα receptors was performed using a commercial kit, Human PPARα Reporter Assay System (Indigo Biosciences, Cat. #IB00111). This nuclear receptor assay system utilizes proprietary non-human mammalian cells engineered to provide constitutive, high-level expression of Human PPARα. Because these cells incorporate a PPARα-responsive luciferase reporter gene, quantifying expressed luciferase activity provides a sensitive surrogate measure of PPARα activity in the treated cells. The primary application of this reporter assay system is in the screening of test samples to quantify any functional activity, either agonist or antagonist, that they may exert against human PPARα. […] Briefly, reporter cells are dispensed into wells of the assay plate and then immediately dosed with test compounds. Following an overnight incubation, the treatment media is discarded and Luciferase Detection Reagent (LDR) is added. The intensity of light emission from the ensuing luciferase reaction provides a sensitive measure that is directly proportional to the relative level of PPARα activation in the reporter cells.

human PPAR β/δ = target: T2, human PPAR β/δ (Homo sapiens, UniProt Q03181); experiment: Human PPAR β/δ reporter assay (luciferase, Indigo Biosciences kit); details: antagonist mode, agonist at ~EC80; read-out: PPARδ Luciferase IC50
T2 construct: host or cells: engineered reporter cells (analogous to the PPARα kit)
T2 sequence (Q03181 1-441): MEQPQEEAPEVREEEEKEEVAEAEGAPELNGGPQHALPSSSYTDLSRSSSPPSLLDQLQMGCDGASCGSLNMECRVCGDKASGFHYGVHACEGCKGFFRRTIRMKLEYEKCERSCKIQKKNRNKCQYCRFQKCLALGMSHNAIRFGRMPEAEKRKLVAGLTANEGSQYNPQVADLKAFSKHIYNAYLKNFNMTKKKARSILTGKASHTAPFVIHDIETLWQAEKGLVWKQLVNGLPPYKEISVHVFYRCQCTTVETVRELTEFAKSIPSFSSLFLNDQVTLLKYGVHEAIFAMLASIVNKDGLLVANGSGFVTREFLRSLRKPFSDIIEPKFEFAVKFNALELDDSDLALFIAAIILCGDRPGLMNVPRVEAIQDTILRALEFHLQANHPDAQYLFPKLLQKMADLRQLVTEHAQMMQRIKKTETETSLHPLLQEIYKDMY
Protocol: (§1) Target Selectivity Assays
(§2) To determine species selectivity, a Mouse PPARα Reporter Assay System was used (Indigo Biosciences, Cat. #M00111). Activity of test compounds to antagonize or agonize other isoforms of human PPAR, for example β/δ and γ, were assessed using the corresponding kits from Indigo Biosciences (Cat. #IB00121 and #IB00101, respectively). In addition to PPAR activity, compounds were also screened for activity against other nuclear hormone receptors including Estrogen Receptor β, Glucocorticoid Receptor and Thyroid Receptor β using commercially available kits (Indigo Biosciences, Cat. #IB00411, IB00201 and IB01101, respectively). Each assay system from Indigo Biosciences uses technology analogous to the human PPARα kit, with the variance being that the cells used for each assay were engineered to over-express the receptor of interest. In addition, the appropriate receptor agonist (included with each kit) was used at ˜EC80 for assays in which antagonist potency was being assessed.

human PPAR γ = target: T3, human PPAR γ (Homo sapiens, UniProt P37231); experiment: Human PPARγ reporter assay (Indigo Biosciences kit); details: antagonist mode, agonist at ~EC80; read-out: PPARγ
T3 sequence (P37231 1-505): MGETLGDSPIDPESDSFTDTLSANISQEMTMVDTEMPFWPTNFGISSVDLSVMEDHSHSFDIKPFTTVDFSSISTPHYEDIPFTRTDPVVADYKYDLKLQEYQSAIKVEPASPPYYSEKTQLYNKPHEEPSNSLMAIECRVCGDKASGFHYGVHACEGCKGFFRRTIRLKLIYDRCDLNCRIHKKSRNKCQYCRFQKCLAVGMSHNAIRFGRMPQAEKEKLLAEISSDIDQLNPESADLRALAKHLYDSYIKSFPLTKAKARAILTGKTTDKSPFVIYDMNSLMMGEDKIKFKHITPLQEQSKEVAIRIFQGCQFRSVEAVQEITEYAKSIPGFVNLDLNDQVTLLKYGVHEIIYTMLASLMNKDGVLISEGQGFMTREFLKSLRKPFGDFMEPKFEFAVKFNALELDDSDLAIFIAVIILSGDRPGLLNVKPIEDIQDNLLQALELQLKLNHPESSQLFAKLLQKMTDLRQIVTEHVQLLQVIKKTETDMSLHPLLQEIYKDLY
Protocol: as §1, §2

| Compound | IC50 (Human PPARα) [nM] | IC50 (human PPAR β/δ) [nM] | IC50 (human PPAR γ) [nM] |
| --- | --- | --- | --- |
| Cc1cc(CCCc2nn(-c3ccc(C(F)(F)F)cc3)c(=O)n2-c2ccccc2F)ccc1-c1ccc(C(F)(F)F)c(C(=O)O)c1 [Example 10, 4′-(3-(4-(2-fluorophenyl)-5-oxo-1-(4-(trifluoromethyl)phenyl)-4,5-dihydro-1H-1,2,4-triazol-3-yl)propyl)-2′-methyl-(4-trifluoromethyl)-[1,1′-biphenyl-]-3-carboxylic acid] | 192 | 198 | 28100 |
| CCCn1c(CCCc2ccc(-c3cccc(NS(=O)(=O)c4ccccc4)n3)cc2)nn(-c2ccc(C(F)(F)F)cc2)c1=O [Example 13, N-(6-(4-(3-(5-oxo-4-propyl-1-(4-(trifluoromethyl)phenyl)-4,5-dihydro-1H-1,2,4-triazol-3-yl)propyl)phenyl)pyridin-2-yl)benzenesulfonamide] | 182 | 1160 | > 100000 |
| CCOc1ccc(-c2ccc(CCCc3nn(-c4ccc(C(F)(F)F)cc4)c(=O)n3C3CCCCC3C)cc2)cc1CC(=O)O (stereo not drawn) [Example 7] | 324 | 220 | 19400 |
| CCCn1c(CCCc2ccc(-c3ccc(OCC)c(CC(=O)O)c3)cc2)nn(-c2ccc(C(F)(F)F)cc2)c1=O [Example 3, 2-(4-ethoxy-4′-(3-(5-oxo-4-propyl-1-(4-(trifluoromethyl)phenyl)-4,5-dihydro-1H-1,2,4-triazol-3-yl)propyl)-[1,1′-biphenyl]-3-yl)acetic acid] | 113 | 474 | 50000 |
| CCOc1ccc(-c2ccc(CCCc3nn(-c4ccc(C(F)(F)F)cc4)c(=O)n3-c3ccccc3Cl)cc2)cc1CC(=O)O [Example 19] | 31 | 32 | 22300 |

The remaining lines, values ahead:

| IC50 (Human PPARα) [nM] | IC50 (human PPAR β/δ) [nM] | IC50 (human PPAR γ) [nM] | Compound |
| --- | --- | --- | --- |
| 386 | 96 | 27600 | CCOc1ccc(-c2cccc(CCCc3nn(-c4ccc(C(F)(F)F)cc4)c(=O)n3-c3ccccc3F)c2)cc1CC(=O)O [Example 30, 2-(4-ethoxy-3′-(3-(4-(2-fluorophenyl)-5-oxo-1-(4-(trifluoromethyl)phenyl)-4,5-dihydro-1H-1,2,4-triazol-3-yl)propyl)-[1,1′-biphenyl]-3-yl)acetic acid] |
| 30 | 67 | 55200 | CCOc1ccc(-c2ccc(CCCc3nn(-c4ccc(C(F)(F)F)cc4)c(=O)n3-c3cccc(F)c3)cc2)cc1CC(=O)O [Example 21] |
| 150 | 363 | 32900 | CCOc1ccc(-c2ccc(CCCc3nn(-c4ccc(C(F)(F)F)cc4)c(=O)n3CC(C)C)cc2)cc1CC(=O)O [Example 20] |
